Measured values taken from patent publication US20090131354A1, “miR-126 REGULATED GENES AND PATHWAYS AS TARGETS FOR THERAPEUTIC INTERVENTION” (priority 2007, published 2009).

Legend:
[1] = system: A549 cells; test: Ingenuity Pathways Analysis of affected cellular pathways; set-up: species or system human
Experimental: The mis-regulation of gene expression by hsa-miR-126 (Table 1) affects many cellular pathways that represent potential therapeutic targets for the control of cancer and other diseases and disorders. The inventors determined the identity and nature of the cellular genetic pathways affected by the regulatory cascade induced by hsa-miR-126 expression. Cellular pathway analyses were performed using Ingenuity Pathways Analysis (Version 4.0, Ingenuity® Systems, Redwood City, Calif.). Alteration of a given pathway was determined by Fisher's Exact test (Fisher, 1922).

[2] = system: lung cancer (A549, HTB-57) or cervical cancer (HeLa) cells; details: A549, HTB-57, HeLa; miRNA given before the compound; cited from earlier work
[3] = system: RWPE2 prostate cancer cells; test: Alamar Blue proliferation assay, RWPE2; type: cell-based, human; details: 30 nM, normalized to negative control miRNA (100% proliferation)
From the text: (§1) The inventors assessed the therapeutic effect of hsa-miR-126 for prostate cancer by using 4 individual human prostate cancer cell lines. To measure cellular proliferation of prostate cancer cells, the following prostate cancer cell lines were used: PPC-1, derived from a bone metastasis; Du145, derived from a brain metastasis; RWPE2, derived from prostate cells immortalized by human papillomavirus 18 and transformed by the K-RAS oncogene; and LNCaP, derived from a lymph node metastasis (Stone et al., 1978; Horoszewicz et al., 1980; Brothman et al., 1991; Pretlow et al., 1993; Bello et al., 1997). PPC-1 and Du145 cells lack expression of the prostate-specific antigen (PSA) and are independent of androgen receptor (AR) signaling. In contrast, RWPE2 and LNCaP cells test positive for PSA and AR. Cells were transfected with synthetic hsa-miR-126 (Pre-miR™-hsa-miR-126, Ambion cat. no. AM 17100) or negative control miRNA (NC; Pre-miR™ microRNA Precursor Molecule-Negative Control #2; Ambion cat. no. AM17111) in a 96-well format using a lipid-based transfection reagent. […] Proliferation was assessed 4-7 days post-transfection using Alamar Blue™ (Invitrogen) following the manufacturer's instructions. […] Fluorescent light units (FLU) were measured after 3 hours, normalized to the control, and plotted as percent change in proliferation. […]

[4] = system: HCC2935 lung cancer cells; test: Alamar Blue proliferation assay, HCC2935; type: cell-based, human; details: HCC2935, 30 nM, 72 h, relative to NC miRNA (100%)
From the text: The inventors assessed the therapeutic effect of hsa-miR-126 for lung cancer by using 11 individual lung cancer cell lines. To measure cellular proliferation of lung cancer cells, the following non-small cell lung cancer (NSCLC) cells were used: cells derived from lung adenocarcinoma (A549, H1299, H522, H838, Calu-3, HCC827, HCC2935), cells derived from lung squamous cell carcinoma (H520, H226), cells derived from lung bronchioalveolar carcinoma (H1650), and cells derived from lung large cell carcinoma (H460). Synthetic hsa-miR-126 (Pre-miR™-hsa-miR-126, Ambion cat. no. AM17100) or negative control (NC) miRNA (Pre-miR™ microRNA Precursor Molecule-Negative Control #2; Ambion cat. no. AM17111) was delivered via lipid-based transfection into A549, H1299, H522, H838, Calu-3, HCC827, HCC2935, H520, H1650, and H460 cells, and via electroporation into H226 cells.
Lipid-based reverse transfections were carried out in triplicate according to a published protocol (Ovcharenko et al., 2005) and the following parameters: Cells (5,000-12,000 per 96 well), 0.1-0.2 μl Lipofectamine™ 2000 (cat. no. 11668-019, Invitrogen Corp., Carlsbad, Calif., USA) in 20 μl OptiMEM (Invitrogen), 30 nM final concentration of miRNA in 100 μl. […]

[5] = system: Du145 prostate cancer cells; test: Alamar Blue proliferation assay, Du145; type: cell-based, human; details: 30 nM, normalized to negative control miRNA (100% proliferation)
From the text: as §1

Q: What does the source list for “hsa-miR-126 (UCGUACCGUGAGUAAUAAUGC; synthetic pre-miR form, further chemistry not given here) [Synthetic hsa-miR-126 (Pre-miR™-hsa-miR-126, Ambion cat. no. AM17100)]”?
A: Number of Genes ([1]; pathway: Cancer, Cellular Movement, Tumor Morphology): 23; Number of Genes ([1]; pathway: Carbohydrate Metabolism, Connective Tissue Disorders, Inflammatory Disease): 15; Number of Genes ([1]; pathway: Cell Cycle, Connective Tissue Development and Function, Immune Response): 1; Number of Genes ([1]; pathway: Cell Cycle, Lipid Metabolism, Molecular Transport): 15; Number of Genes ([1]; pathway: Cell Death, Cell-To-Cell Signaling and Interaction, Cellular Assembly and Organization): 1; Number of Genes ([1]; pathway: Cell Morphology, Cellular Assembly and Organization, Cellular Development): 15; Number of Genes ([1]; pathway: Cell Signaling, Molecular Transport, Neurological Disease): 1; Number of Genes ([1]; pathway: Cell-To-Cell Signaling and Interaction, Immune Response, Immune and Lymphatic System Development and Function): 13; Number of Genes ([1]; pathway: Cellular Assembly and Organization, Cancer, Skeletal and Muscular Disorders): 16; Number of Genes ([1]; pathway: Cellular Function and Maintenance, Cellular Assembly and Organization, Cell Cycle): 11; Number of Genes ([1]; pathway: Cellular Growth and Proliferation, Skeletal and Muscular System Development and Function, Cancer): 16; Number of Genes ([1]; pathway: Cellular Movement, Cellular Assembly and Organization, Drug Metabolism): 16; Number of Genes ([1]; pathway: Developmental Disorder, Endocrine System Disorders, Lipid Metabolism): 1; Number of Genes ([1]; pathway: Immune Response, Cellular Assembly and Organization, Gene Expression): 1; Number of Genes ([1]; pathway: Molecular Transport, Protein Trafficking, Cell-To-Cell Signaling and Interaction): 1; effect on cell death induced by therapeutic compound (e.g., etoposide) [2]: increased the capacity of the therapeutic compound to induce death; % proliferation [3]: 91.82%; % proliferation [4]: 66.89%; % proliferation [5]: 63.41%
